For one compound, IC50 and Ki results are on record in patent US12600729B2, “New-type benzazepine fused ring derivative” (SHANGHAI JEYOU PHARMACEUTICAL CO., LTD., priority 2021, dated 2026).

For assay [1], the target named is T1, human vasopressin receptor V2R (Homo sapiens, UniProt P30518).
T1 construct: host or cells: HeLa (lentivirus infection, puromycin selection)
Nature of the assay: Inhibition of vasopressin-induced activation of V2R (cAMP HTRF in HeLa-V2R cells). Type of assay: cell-based. Particulars: AVP 2.25 nM, read-out: IC50, inhibition of cAMP increase in human cervical cancer cells (Human V2R Hela-Stable cell line OE2). Here is the method: HeLa-V2R cells were incubated with DMEM medium supplemented with 10% fetal bovine serum under the condition of 37° C. and 5% CO2, and the medium was added with 2 μg/mL puromycin to continuously screen cells expressing V2R. On the day of the experiment, the cells were digested with trypsin, washed twice with the stimulation buffer in the cAMP-GS HIRANGE kit, resuspended, and counted to prepare 1.6×10^6 cells/mL, and IBMX was added until a final concentration of 0.5 mM. 5 μL of cell suspension/well was transferred to a 384-well plate. To the corresponding wells were added 2.5 μL of various concentrations of the test compounds (3-fold dilution from 10 μM, 10 concentration gradients) or DMSO (minimum value Min, maximum value Max as a control), respectively. […]. At the same time, cAMP standard samples (3-fold dilution from 5.6 μM, 10 concentration points) were prepared, and 10 μL of cAMP standard samples were transferred to corresponding wells of a 384-well plate. The cAMP-d2 fluorescence and anti-cAMP antibody probes provided in the kit were 20-fold diluted by the lysis buffer in the cAMP-GS HIRANGE kit. To each well of a 384-well plate was sequentially added 5 μL of each diluted reagent. The above mixture in each well was mixed well, centrifuged briefly, incubated at 25° C. for 2 hours, and tested. The sample was tested by the HTRF method with the Envision microplate reader to determine the fluorescence intensity at 615 nm and 665 nm. Each test sample was tested in duplicate, with 32 replicates for both Min and Max, respectively.
The fluorescence intensity ratio FI665/615 at the wavelength of 665 nm and 615 nm of the samples in each well was calculated. The logarithm of the concentration of the standard was taken as X, and FI665/615×1000 as the Y value, and the standard curve was obtained by fitting the “log(inhibitor) vs response-variable slope (four parameters)” model in Prism 8.0 software. FI665/615×1000 of the test well was taken as the Y value, and the cAMP concentration corresponding to each sample was calculated in the Prism 8.0 software according to the above standard curve.
% Inhibition (inhibition percentage) calculation formula is as follows: % inhibition=(Cmax−Ccmpd)/(Cmax−Cmin)×100
wherein Cmax is the average calculated value of cAMP concentration in all maximum wells; Cmin is the average calculated value of cAMP concentration in all minimum wells; Ccmpd is the calculated value of cAMP concentration of the test compound.
% Inhibition (inhibition percentage) was taken as the Y value, and the logarithmic value of the compound concentration was taken as the X value, and the IC50 was calculated by nonlinear regression with “log(inhibitor) vs response-variable slope (four parameters)” model in Prism 8.0 software, wherein Y=Bottom+(Top−Bottom)/(1+10^((Log IC50−X)×Hill Slope)).

Assay [2] has as its target T2, human V1aR (Homo sapiens, UniProt P37288).
T2 construct: expressed in transfected cells; membranes prepared in house
Kind of assay: Competitive isotope ligand binding, V1a receptor. Here is the method: (§1) The cells with high expression of human V1a receptor were amplified, collected, washed twice with PBS, resuspended with PBS containing a protease inhibitor, homogenized with a homogenizer at 15000 r/min to break the cells, and centrifuged at 4° C. and 3000 r/min for 15 minutes. The supernatant was collected, centrifuged at 20,000 r/min at 4° C. for 45 minutes. Then the supernatant was discarded to obtain a cell membrane precipitation. Buffer was added to resuspend to measure the protein concentration, aliquoted, and stored at −80° C. The cell membranes of highly expressed human V1b and V2 receptors were purchased from Perkinelmer, USA.
(§2) The stock solution of the test compound and that of the positive control were diluted to 1 mM (10-fold dilution) and 0.1 mM (100-fold dilution) with DMSO, respectively, and then sequentially subjected to a four-fold dilution with DMSO to the tenth point.
(§3) Cell membranes overexpressing human receptors were prepared with assay buffer to 5 mg/mL.
(§4) • 1. 1 μL of the compound was aspirated from the dilution plate into each well of the 96-well assay plate (the concentration of the test compound in the reaction would be diluted 100-fold). To the control well was added 1 μL of DMSO. • 2. 10 mL of membrane solution containing 5 μg/μL was prepared. • 3. To the compound assay plate was added the membrane solution from step 2 with a pipette, and each well was added with 89 μL of the membrane solution. • 4. […] The configured test plate was placed at 30° C. and incubated for 60 minutes. • 6. The membrane complexes were collected into 0.5% PEI pre-coated GF/B plate with Cell Harvester, washed 3 times with 2 mL of pre-cooled elution buffer at 4° C., and dried at 37° C. for 2 hours. • 7.
(§5) Y=Bottom+(Top−Bottom)/(1+10^((X−Log IC50))), wherein: Y is the reading value of the liquid scintillation counter, and X is the logarithmic value of the compound concentration.

Assay [3] deals with T3, human V1bR (Homo sapiens, UniProt P47901).
T3 construct: purchased Perkinelmer, USA
T3 sequence (P47901 1-424): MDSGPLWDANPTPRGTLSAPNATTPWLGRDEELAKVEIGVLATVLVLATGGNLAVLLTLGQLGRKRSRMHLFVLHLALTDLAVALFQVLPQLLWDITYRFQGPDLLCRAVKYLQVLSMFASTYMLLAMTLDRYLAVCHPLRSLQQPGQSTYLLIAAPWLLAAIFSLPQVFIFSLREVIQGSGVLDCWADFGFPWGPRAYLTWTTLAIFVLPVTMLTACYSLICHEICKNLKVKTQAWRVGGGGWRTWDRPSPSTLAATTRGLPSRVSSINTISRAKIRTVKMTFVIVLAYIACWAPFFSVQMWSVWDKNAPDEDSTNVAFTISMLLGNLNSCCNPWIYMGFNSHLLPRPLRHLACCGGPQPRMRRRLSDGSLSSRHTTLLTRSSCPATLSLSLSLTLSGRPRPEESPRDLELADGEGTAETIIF
Kind of assay: Competitive isotope ligand binding, V1b receptor. The method, then: as §1, §2, §3, §4, §5

Structures are written as SMILES. Read-outs that look alike come from different tables or passages of the source.

T2 sequence (P37288 whole entry): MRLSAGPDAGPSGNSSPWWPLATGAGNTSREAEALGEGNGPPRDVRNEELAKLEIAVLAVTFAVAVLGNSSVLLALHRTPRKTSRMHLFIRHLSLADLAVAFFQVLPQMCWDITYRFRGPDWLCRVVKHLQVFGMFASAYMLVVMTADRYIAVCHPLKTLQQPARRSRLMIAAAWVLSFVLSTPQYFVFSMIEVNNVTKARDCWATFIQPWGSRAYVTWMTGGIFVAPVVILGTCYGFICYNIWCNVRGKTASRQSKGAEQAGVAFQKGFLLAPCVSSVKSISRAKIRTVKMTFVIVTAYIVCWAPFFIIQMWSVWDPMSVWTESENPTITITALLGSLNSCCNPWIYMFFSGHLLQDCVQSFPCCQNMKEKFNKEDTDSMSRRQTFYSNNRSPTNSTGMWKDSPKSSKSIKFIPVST
T1 sequence (P30518 whole entry): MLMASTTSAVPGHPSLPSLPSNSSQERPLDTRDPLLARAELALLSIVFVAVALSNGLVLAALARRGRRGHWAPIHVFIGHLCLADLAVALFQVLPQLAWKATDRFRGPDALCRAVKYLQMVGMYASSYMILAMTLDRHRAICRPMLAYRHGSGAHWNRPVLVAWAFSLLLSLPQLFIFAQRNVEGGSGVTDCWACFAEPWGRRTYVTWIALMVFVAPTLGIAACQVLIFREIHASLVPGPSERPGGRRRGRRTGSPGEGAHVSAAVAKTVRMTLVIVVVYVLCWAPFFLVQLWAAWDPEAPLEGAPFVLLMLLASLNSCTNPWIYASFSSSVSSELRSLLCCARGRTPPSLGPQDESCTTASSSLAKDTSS

Turning to `O=C(Nc1ccc(C(=O)N2CC[C@@H]3CCN[C@H]3c3cc(Cl)ccc32)cn1)c1ccccc1C(F)(F)F` (single isomer, unassigned) [Compound 10A], the IC50 – broadly, the midpoint of a concentration-inhibition curve – in assay [1] is 31 nM; in assay [3], greater than 10000 nM. Also, the Ki in assay [2] (Binding affinity V1aR, N = 1, isotope-labeled vasopressin […], experiment 1) was 19.7 nM; in assay [2] (Binding affinity V1aR, N = 2, isotope-labeled vasopressin […], experiment 2) it was 11.1 nM; in assay [2] (isotope-labeled vasopressin […], mean ± spread, read-out: Binding affinity V1aR, mean of the two experiments), 15.4 ± 4.3 nM; in assay [3], greater than 10 µM; in assay [3] (isotope-labeled vasopressin […], bound given in μM, read-out: Binding affinity V1bR, summary of the two experiments), greater than 10 µM; in assay [3] (read-out: Binding affinity V1bR, N = 2, isotope-labeled vasopressin […], experiment 2, bound printed in μM), greater than 10 µM.
